Source: patent US9695155B2, “Herbicidal substituted pyrimidinyloxy benzene compounds” (E. I. DU PONT DE NEMOURS AND COMPANY, priority 2013, dated 2017)

Experiments:
barnyardgrass [1] = test: Test A preemergence; format: in vivo, Echinochloa crus-galli; conditions: for Barnyardgrass plant response rating: 500 g ai/ha
Procedure, shortened: (§1)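 Greenhouse pot test, loam/sand soil. Formulation: non-phytotoxic solvent mix plus surfactant. Pre: directed spray onto soil after sowing. Post: plants at 1–2 leaf, 2–10 cm. Rated visually vs untreated controls at ~10 d, 0 (no effect) to 100 (complete control).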

large (Lg) crabgrass [2] = test: Test A preemergence; format: in vivo, Digitaria sanguinalis; conditions: for Crabgrass, Large plant response rating: 500 g ai/ha
Procedure, shortened: as §1

giant foxtail [3] = test: Test A preemergence; format: in vivo, Setaria faberii; conditions: for Foxtail, Giant plant response rating: 500 g ai/ha
Procedure, shortened: as §1

morningglory [4] = test: Test A preemergence; format: in vivo, Ipomoea spp.; conditions: for Morningglory plant response rating: 500 g ai/ha
Procedure, shortened: as §1

pigweed [5] = test: Test A preemergence; format: in vivo, Amaranthus retroflexus; conditions: for Pigweed plant response rating: 500 g ai/ha
Procedure, shortened: as §1

velvetleaf [6] = test: Test A preemergence; format: in vivo, Abutilon theophrasti; conditions: for Velvetleaf plant response rating: 500 g ai/ha
Procedure, shortened: as §1

wheat [7] = test: Test A preemergence; format: in vivo, Triticum aestivum; conditions: for Wheat plant response rating: 500 g ai/ha
Procedure, shortened: as §1

corn [8] = test: Test A preemergence; format: in vivo, Zea mays; conditions: for Corn plant response rating: 500 g ai/ha
Procedure, shortened: as §1

barnyardgrass [9] = test: Test A postemergence; format: in vivo, Echinochloa crus-galli
Procedure, shortened: as §1

large (Lg) crabgrass [10] = test: Test A postemergence; format: in vivo, Digitaria sanguinalis
Procedure, shortened: as §1

giant foxtail [11] = test: Test A postemergence; format: in vivo, Setaria faberii
Procedure, shortened: as §1

morningglory [12] = test: Test A postemergence; format: in vivo, Ipomoea spp.
Procedure, shortened: as §1

pigweed [13] = test: Test A postemergence; format: in vivo, Amaranthus retroflexus
Procedure, shortened: as §1

velvetleaf [14] = test: Test A postemergence; format: in vivo, Abutilon theophrasti
Procedure, shortened: as §1

wheat [15] = test: Test A postemergence; format: in vivo, Triticum aestivum
Procedure, shortened: as §1

corn [16] = test: Test A postemergence; format: in vivo, Zea mays
Procedure, shortened: as §1

rice = test: Test B flooded paddy test; format: in vivo, Oryza sativa; conditions: Flood, 250 g ai/ha; 0 to 100 scale where 0 is no effect and 100 is complete control
Procedure, shortened: (§2)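 Plants were grown to the 2-leaf stage, then pots were flooded to 3 cm above the soil and compounds were applied directly into the paddy water. That depth was held throughout, and after 13 to 15 days in the greenhouse injury was rated visually against controls on a 0–100 scale (0 no effect, 100 complete control).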

sedge, umbrella = test: Test B flooded paddy test; format: in vivo, Cyperus difformis; conditions: Flood, 250 g ai/ha; 0 to 100 scale where 0 is no effect and 100 is complete control
Procedure, shortened: as §2

Heteranthera limosa = test: Test B flooded paddy test; format: in vivo; conditions: Flood, 250 g ai/ha; 0 to 100 scale where 0 is no effect and 100 is complete control
Procedure, shortened: as §2

barnyardgrass [17] = test: Test B flooded paddy test; format: in vivo, Echinochloa crus-galli; conditions: Flood, 250 g ai/ha; 0 to 100 scale where 0 is no effect and 100 is complete control
Procedure, shortened: as §2

[18] = 125 g ai/ha, 0 to 100 scale where 0 is no effect and 100 is complete control
[19] = 0 to 100 scale, 0 no effect, 100 complete control, approx. 10 days
[20] = 500 g ai/ha, 0 to 100 scale, 0 no effect, 100 complete control
[21] = 0 to 100 scale where 0 is no effect and 100 is complete control
[22] = 500 g ai/ha, 0 to 100 scale where 0 is no effect and 100 is complete control

Cc1cnn(-c2ccccc2Oc2ncc(Cl)cn2)c1 [Compound 23]
Plant response rating, Barnyardgrass (barnyardgrass [1]; [18]): 20
Barnyardgrass plant response rating (barnyardgrass [1]; [19]): 50
Plant response rating, Crabgrass, Large (large (Lg) crabgrass [2]; [18]): 90
Crabgrass, Large plant response rating (large (Lg) crabgrass [2]; [19]): 90
Plant response rating, Foxtail, Giant (giant foxtail [3]; [18]): 70
Foxtail, Giant plant response rating (giant foxtail [3]; [19]): 90
Plant response rating, Morningglory (morningglory [4]; [18]): 0
Morningglory plant response rating (morningglory [4]; [19]): 0
Plant response rating, Pigweed (pigweed [5]; [18]): 100
Pigweed plant response rating (pigweed [5]; [19]): 100
Plant response rating, Velvetleaf (velvetleaf [6]; [18]): 90
Velvetleaf plant response rating (velvetleaf [6]; [19]): 90
Plant response rating, Wheat (wheat [7]; [18]): 0
Wheat plant response rating (wheat [7]; [19]): 0
Plant response rating, Corn (corn [8]; [18]): 0
Corn plant response rating (corn [8]; [19]): 20
Plant response rating, Barnyardgrass (barnyardgrass [9]; [18]): 0
Plant response rating, Barnyardgrass (barnyardgrass [9]; [20]): 40
Plant response rating, Crabgrass, Large (large (Lg) crabgrass [10]; [18]): 20
Plant response rating, Crabgrass, Large (large (Lg) crabgrass [10]; [20]): 60
Plant response rating, Foxtail, Giant (giant foxtail [11]; [18]): 40
Plant response rating, Foxtail, Giant (giant foxtail [11]; [20]): 90
Plant response rating, Morningglory (morningglory [12]; [18]): 50
Plant response rating, Morningglory (morningglory [12]; [20]): 90
Plant response rating, Pigweed (pigweed [13]; [18]): 90
Plant response rating, Pigweed (pigweed [13]; [20]): 100
Plant response rating, Velvetleaf (velvetleaf [14]; [18]): 80
Plant response rating, Velvetleaf (velvetleaf [14]; [20]): 100
Plant response rating, Wheat (wheat [15]; [18]): 0
Plant response rating, Wheat (wheat [15]; [20]): 20
Plant response rating, Corn (corn [16]; [18]): 0
Plant response rating, Corn (corn [16]; [20]): 60
Plant response rating, Rice (rice): 35
Plant response rating, Sedge, Umbrella (sedge, umbrella): 70
Plant response rating, Ducksalad (Heteranthera limosa): 80
Plant response rating, Barnyardgrass (barnyardgrass [17]): 20

O=Cc1cccc(Oc2ncc(Br)cn2)c1-n1cc(I)cn1 [Compound 183]
Barnyardgrass plant response rating (0 to 100 scale, 0 is no effect, 100 is complete control) (barnyardgrass [1]; 125 g ai/ha): 0
Barnyardgrass plant response rating (barnyardgrass [1]; [21]): 0
Crabgrass, Large plant response rating (0 to 100 scale) (large (Lg) crabgrass [2]; 125 g ai/ha): 0
Crabgrass, Large plant response rating (large (Lg) crabgrass [2]; [21]): 0
Foxtail, Giant plant response rating (0 to 100 scale) (giant foxtail [3]; 125 g ai/ha): 0
Foxtail, Giant plant response rating (giant foxtail [3]; [21]): 0
Morningglory plant response rating (0 to 100 scale) (morningglory [4]; 125 g ai/ha): 0
Morningglory plant response rating (morningglory [4]; [21]): 0
Pigweed plant response rating (0 to 100 scale) (pigweed [5]; 125 g ai/ha): 20
Pigweed plant response rating (pigweed [5]; [21]): 90
Velvetleaf plant response rating (0 to 100 scale) (velvetleaf [6]; 125 g ai/ha): 0
Velvetleaf plant response rating (velvetleaf [6]; [21]): 0
Wheat plant response rating (0 to 100 scale) (wheat [7]; 125 g ai/ha): 0
Wheat plant response rating (wheat [7]; [21]): 0
Corn plant response rating (0 to 100 scale) (corn [8]; 125 g ai/ha): 0
Corn plant response rating (corn [8]; [21]): 0
Barnyardgrass plant response rating (barnyardgrass [9]; [18]): 0
Plant response rating, Barnyardgrass (barnyardgrass [9]; [22]): 0
Crabgrass, Large plant response rating (large (Lg) crabgrass [10]; [18]): 0
Plant response rating, Crabgrass, Large (large (Lg) crabgrass [10]; [22]): 0
Foxtail, Giant plant response rating (giant foxtail [11]; [18]): 0
Plant response rating, Foxtail, Giant (giant foxtail [11]; [22]): 0
Morningglory plant response rating (morningglory [12]; [18]): 0
Plant response rating, Morningglory (morningglory [12]; [22]): 0
Pigweed plant response rating (pigweed [13]; [18]): 20
Plant response rating, Pigweed (pigweed [13]; [22]): 50
Velvetleaf plant response rating (velvetleaf [14]; [18]): 20
Plant response rating, Velvetleaf (velvetleaf [14]; [22]): 30
Wheat plant response rating (wheat [15]; [18]): 0
Plant response rating, Wheat (wheat [15]; [22]): 0
Corn plant response rating (corn [16]; [18]): 0
Plant response rating, Corn (corn [16]; [22]): 0
Plant response rating, Rice (rice): 0
Plant response rating, Sedge, Umbrella (sedge, umbrella): 0
Plant response rating, Ducksalad (Heteranthera limosa): 0
Plant response rating, Barnyardgrass (barnyardgrass [17]): 0

COc1ccc(Br)c(-n2cc(Br)cn2)c1Oc1ncc(Cl)cn1 [Compound 201]
Barnyardgrass plant response rating (0 to 100 scale, 0 is no effect, 100 is complete control) (barnyardgrass [1]; 125 g ai/ha): 0
Barnyardgrass plant response rating (barnyardgrass [1]; [21]): 0
Crabgrass, Large plant response rating (0 to 100 scale) (large (Lg) crabgrass [2]; 125 g ai/ha): 20
Crabgrass, Large plant response rating (large (Lg) crabgrass [2]; [21]): 40
Foxtail, Giant plant response rating (0 to 100 scale) (giant foxtail [3]; 125 g ai/ha): 20
Foxtail, Giant plant response rating (giant foxtail [3]; [21]): 50
Morningglory plant response rating (0 to 100 scale) (morningglory [4]; 125 g ai/ha): 0
Morningglory plant response rating (morningglory [4]; [21]): 0
Pigweed plant response rating (0 to 100 scale) (pigweed [5]; 125 g ai/ha): 0
Pigweed plant response rating (pigweed [5]; [21]): 0
Velvetleaf plant response rating (0 to 100 scale) (velvetleaf [6]; 125 g ai/ha): 0
Velvetleaf plant response rating (velvetleaf [6]; [21]): 0
Wheat plant response rating (0 to 100 scale) (wheat [7]; 125 g ai/ha): 0
Wheat plant response rating (wheat [7]; [21]): 0
Corn plant response rating (0 to 100 scale) (corn [8]; 125 g ai/ha): 0
Corn plant response rating (corn [8]; [21]): 0
Barnyardgrass plant response rating (barnyardgrass [9]; [18]): 0
Plant response rating, Barnyardgrass (barnyardgrass [9]; [22]): 10
Crabgrass, Large plant response rating (large (Lg) crabgrass [10]; [18]): 0
Plant response rating, Crabgrass, Large (large (Lg) crabgrass [10]; [22]): 30
Foxtail, Giant plant response rating (giant foxtail [11]; [18]): 0
Plant response rating, Foxtail, Giant (giant foxtail [11]; [22]): 40
Morningglory plant response rating (morningglory [12]; [18]): 20
Plant response rating, Morningglory (morningglory [12]; [22]): 20
Pigweed plant response rating (pigweed [13]; [18]): 20
Plant response rating, Pigweed (pigweed [13]; [22]): 40
Velvetleaf plant response rating (velvetleaf [14]; [18]): 30
Plant response rating, Velvetleaf (velvetleaf [14]; [22]): 70
Wheat plant response rating (wheat [15]; [18]): 0
Plant response rating, Wheat (wheat [15]; [22]): 0
Corn plant response rating (corn [16]; [18]): 0
Plant response rating, Corn (corn [16]; [22]): 0
Plant response rating, Rice (rice): 0
Plant response rating, Sedge, Umbrella (sedge, umbrella): 20
Plant response rating, Ducksalad (Heteranthera limosa): 40
Plant response rating, Barnyardgrass (barnyardgrass [17]): 0
